{"source": "ChEMBL document CHEMBL6109142", "about": "(J Med Chem, 2025)", "note": "The source made the active and inactive calls. No cut-off for these calls is given here.", "data": [{"tested_on": "not listed separately", "test": "Toxicity in C57BL/6J mouse at 5 mg/kg, iv measured for 24 hrs", "type": "organism-based", "settings": "in vivo", "values": [{"smiles": "N=C(N)NCCC[C@H](NC(=O)[C@H](Cc1ccccc1)NC(=O)[C@H](CCC(N)=O)NC(=O)OCc1ccccc1)C(=O)c1nccs1", "Activity": "Non-toxic"}]}, {"molecular_target": "Procathepsin L (Homo sapiens, UniProt P07711)", "test": "Inhibition of recombinant human C-terminal 6 his-tagged Cathepsin L assessed as inhibition constant using Z-LR-AMC as peptide substrate incubated for 1 hr by fluorescence based analysis", "settings": "not given", "units": {"Ki": "nM"}, "values": [{"smiles": "CCOC(=O)N[C@@H](CCCNC(=N)N)C(=O)N[C@@H](CCC(N)=O)C(=O)N[C@@H](Cc1ccccc1)C(=O)N[C@@H](CCCNC(=N)N)C(=O)c1nc2ccccc2s1", "Ki": 695}, {"smiles": "N=C(N)NCCC[C@H](NC(=O)[C@H](Cc1ccccc1)NC(=O)[C@H](CCC(N)=O)NC(=O)OCc1ccccc1)C(=O)c1nccs1", "inhibition": "inactive"}]}, {"tested_on": "not listed separately", "test": "Half life in C57BL/6J mouse plasma at 5 mg/kg, ISIN (Intranasal) measured up to 24 hrs by LC-MS/MS analysis", "type": "ADME, organism-based", "settings": "in vivo, inhaled_or_intranasal", "units": {"t1/2": "h"}, "values": [{"smiles": "N=C(N)NCCC[C@H](NC(=O)[C@H](Cc1ccccc1)NC(=O)[C@H](CCC(N)=O)NC(=O)OCc1ccccc1)C(=O)c1nccs1", "t1/2": 1.8}]}, {"tested_on": "SARS-CoV-2", "test": "Antiviral activity against SARS-CoV-2 EG.5.1 infected in human Calu-3 cells assessed as reduction in residual intracellular nucleocapsid value at 1 uM preincubated with cells for 3 hrs followed by viral infection and measured after 48 hrs by immunostaining based analysis relative to control", "type": "functional, Severe acute respiratory syndrome coronavirus 2", "settings": "time 51 hrs", "units": {"Activity": "%"}, "values": [{"smiles": "N=C(N)NCCC[C@H](NC(=O)[C@H](Cc1ccccc1)NC(=O)[C@H](CCC(N)=O)NC(=O)OCc1ccccc1)C(=O)c1nccs1", "Activity": 2.2}]}, {"tested_on": "not listed separately", "test": "Toxicity in C57BL/6J mouse at 5 mg/kg, ISIN (Intranasal) measured for 24 hrs", "type": "organism-based", "settings": "in vivo, inhaled_or_intranasal", "values": [{"smiles": "N=C(N)NCCC[C@H](NC(=O)[C@H](Cc1ccccc1)NC(=O)[C@H](CCC(N)=O)NC(=O)OCc1ccccc1)C(=O)c1nccs1", "Activity": "Non-toxic"}]}, {"tested_on": "SARS-CoV-2", "test": "Antiviral activity against SARS-CoV-2 EG.5.1 infected in human Calu-3 cells assessed as reduction in residual intracellular nucleocapsid value at 1 uM preincubated with cells for 3 hrs followed by viral infection and measured after 48 hrs by immunostaining based analysis", "type": "functional, organism-based", "settings": "Severe acute respiratory syndrome coronavirus 2, time 51.0 hrs", "values": [{"smiles": "CCOC(=O)N[C@@H](CCCNC(=N)N)C(=O)N[C@@H](CCC(N)=O)C(=O)N[C@@H](Cc1ccccc1)C(=O)N[C@@H](CCCNC(=N)N)C(=O)c1nc2ccccc2s1", "Activity": "Active"}, {"smiles": "N=C(N)NCCC[C@H](NC(=O)[C@H](Cc1ccccc1)NC(=O)[C@H](CCC(N)=O)NC(=O)OCc1ccccc1)C(=O)c1nccs1", "Activity": "Active"}]}, {"tested_on": "SARS-CoV-2", "test": "Antiviral activity against SARS-CoV-2 JN.1 infected in human Calu-3 cells preincubated with cells for 3 hrs followed by viral infection and measured after 48 hrs by immunostaining based analysis", "type": "functional, organism-based", "settings": "Severe acute respiratory syndrome coronavirus 2, JN.1, Calu-3", "units": {"EC50": "nM"}, "values": [{"smiles": "CCOC(=O)N[C@@H](CCCNC(=N)N)C(=O)N[C@@H](CCC(N)=O)C(=O)N[C@@H](Cc1ccccc1)C(=O)N[C@@H](CCCNC(=N)N)C(=O)c1nc2ccccc2s1", "EC50": 1.3}, {"smiles": "N=C(N)NCCC[C@H](NC(=O)[C@H](Cc1ccccc1)NC(=O)[C@H](CCC(N)=O)NC(=O)OCc1ccccc1)C(=O)c1nccs1", "EC50": 0.09}]}, {"tested_on": "SARS-CoV-2", "test": "Antiviral activity against SARS-CoV-2 pseudotyped with delta spike protein infected in human Calu-3 cells assessed as prevention of virus-like particle cellular entry at 300 nM preincubated with cells for 3 hrs followed by viral infection and measured after 72 hrs by ONE-Glo-Ex luciferase assay relative to control", "type": "functional, Severe acute respiratory syndrome coronavirus 2", "settings": "time 75 hrs", "units": {"Activity": "%"}, "values": [{"smiles": "CCOC(=O)N[C@@H](CCCNC(=N)N)C(=O)N[C@@H](CCC(N)=O)C(=O)N[C@@H](Cc1ccccc1)C(=O)N[C@@H](CCCNC(=N)N)C(=O)c1nc2ccccc2s1", "Activity": 17}, {"smiles": "N=C(N)NCCC[C@H](NC(=O)[C@H](Cc1ccccc1)NC(=O)[C@H](CCC(N)=O)NC(=O)OCc1ccccc1)C(=O)c1nccs1", "Activity": 13}]}, {"tested_on": "not listed separately", "test": "Half life in C57BL/6J mouse plasma at 5 mg/kg, iv measured up to 24 hrs by LC-MS/MS analysis", "type": "ADME, organism-based", "settings": "in vivo", "units": {"t1/2": "h"}, "values": [{"smiles": "N=C(N)NCCC[C@H](NC(=O)[C@H](Cc1ccccc1)NC(=O)[C@H](CCC(N)=O)NC(=O)OCc1ccccc1)C(=O)c1nccs1", "t1/2": 4.79}]}, {"tested_on": "Calu-3", "test": "Cytotoxicity against human Calu-3 cells assessed as cell viability at 10 uM measured after 72 hrs by luminescence based Cell-Titer-Glo assay", "type": "toxicity", "settings": "calu-3, 72 h", "values": [{"smiles": "CCOC(=O)N[C@@H](CCCNC(=N)N)C(=O)N[C@@H](CCC(N)=O)C(=O)N[C@@H](Cc1ccccc1)C(=O)N[C@@H](CCCNC(=N)N)C(=O)c1nc2ccccc2s1", "Activity": "Non-toxic"}, {"smiles": "N=C(N)NCCC[C@H](NC(=O)[C@H](Cc1ccccc1)NC(=O)[C@H](CCC(N)=O)NC(=O)OCc1ccccc1)C(=O)c1nccs1", "Activity": "Non-toxic"}]}, {"molecular_target": "T1, Transmembrane protease serine 2 (Homo sapiens, UniProt O15393)", "T1 sequence (O15393 1-255 limits assumed)": "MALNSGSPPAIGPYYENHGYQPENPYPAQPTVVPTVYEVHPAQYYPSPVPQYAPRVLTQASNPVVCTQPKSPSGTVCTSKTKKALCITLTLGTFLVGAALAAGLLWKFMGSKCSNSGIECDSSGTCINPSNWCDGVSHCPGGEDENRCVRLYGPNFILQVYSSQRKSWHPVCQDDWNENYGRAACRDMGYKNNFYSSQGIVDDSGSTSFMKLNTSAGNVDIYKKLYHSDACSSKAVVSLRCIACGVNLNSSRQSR", "T1 sequence (O15393 256-492 limits assumed)": "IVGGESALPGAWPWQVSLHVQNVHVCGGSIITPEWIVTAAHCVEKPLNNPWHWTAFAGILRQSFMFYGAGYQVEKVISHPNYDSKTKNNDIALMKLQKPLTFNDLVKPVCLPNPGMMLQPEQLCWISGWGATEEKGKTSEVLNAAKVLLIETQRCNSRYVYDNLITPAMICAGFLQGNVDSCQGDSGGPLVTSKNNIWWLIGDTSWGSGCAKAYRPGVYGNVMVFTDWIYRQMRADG", "test": "Inhibition of recombinant TMPRSS2 (unknown origin) extracted from baculovirus infected in Sf9 cells assessed as residual activity using Boc-QAR-AMC as substrate at 1 nM measured after 1 hr by fluorescence based analysis relative to control", "settings": "not given", "units": {"Activity": "%"}, "values": [{"smiles": "CCOC(=O)N[C@@H](CCCNC(=N)N)C(=O)N[C@@H](CCC(N)=O)C(=O)N[C@@H](Cc1ccccc1)C(=O)N[C@@H](CCCNC(=N)N)C(=O)c1nc2ccccc2s1", "Activity": 3}, {"smiles": "N=C(N)NCCC[C@H](NC(=O)[C@H](Cc1ccccc1)NC(=O)[C@H](CCC(N)=O)NC(=O)OCc1ccccc1)C(=O)c1nccs1", "Activity": 3}]}, {"tested_on": "SARS-CoV-2", "test": "Antiviral activity against SARS-CoV-2 EG.5.1 infected in human Calu-3 cells preincubated with cells for 3 hrs followed by viral infection and measured after 48 hrs by immunostaining based analysis", "type": "functional, organism-based", "settings": "Severe acute respiratory syndrome coronavirus 2, EG.5.1, Calu-3", "units": {"EC50": "nM"}, "values": [{"smiles": "CCOC(=O)N[C@@H](CCCNC(=N)N)C(=O)N[C@@H](CCC(N)=O)C(=O)N[C@@H](Cc1ccccc1)C(=O)N[C@@H](CCCNC(=N)N)C(=O)c1nc2ccccc2s1", "EC50": 3.9}, {"smiles": "N=C(N)NCCC[C@H](NC(=O)[C@H](Cc1ccccc1)NC(=O)[C@H](CCC(N)=O)NC(=O)OCc1ccccc1)C(=O)c1nccs1", "EC50": 0.3}]}, {"molecular_target": "T1, Transmembrane protease serine 2", "test": "Inhibition of full length TMPRSS2 (unknown origin) expressed in African green monkey Vero E6 cells using Boc-QAR-AMC as substrate incubated for 24 hrs by microplate reader analysis", "type": "cell-based", "settings": "not given", "units": {"IC50": "nM"}, "values": [{"smiles": "N=C(N)NCCC[C@H](NC(=O)[C@H](Cc1ccccc1)NC(=O)[C@H](CCC(N)=O)NC(=O)OCc1ccccc1)C(=O)c1nccs1", "IC50": 0.59}]}, {"molecular_target": "T1, Transmembrane protease serine 2", "test": "Inhibition of recombinant das TMPRSS2 (unknown origin) extracted from baculovirus infected in Sf9 cells assessed as inhibition constant using Boc-QAR-AMC as substrate measured after 1 hr by fluorescence based analysis", "settings": "not given", "units": {"Ki": "nM"}, "values": [{"smiles": "CCOC(=O)N[C@@H](CCCNC(=N)N)C(=O)N[C@@H](CCC(N)=O)C(=O)N[C@@H](Cc1ccccc1)C(=O)N[C@@H](CCCNC(=N)N)C(=O)c1nc2ccccc2s1", "Ki": 0.095}, {"smiles": "N=C(N)NCCC[C@H](NC(=O)[C@H](Cc1ccccc1)NC(=O)[C@H](CCC(N)=O)NC(=O)OCc1ccccc1)C(=O)c1nccs1", "Ki": 0.03}]}, {"tested_on": "not listed separately", "test": "Bioavailability in C57BL/6J mouse at 5 mg/kg, ISIN (Intranasal) measured up to 24 hrs by LC-MS/MS analysis", "type": "ADME, organism-based", "settings": "in vivo, inhaled_or_intranasal", "units": {"F": "%"}, "values": [{"smiles": "N=C(N)NCCC[C@H](NC(=O)[C@H](Cc1ccccc1)NC(=O)[C@H](CCC(N)=O)NC(=O)OCc1ccccc1)C(=O)c1nccs1", "F": 10.9}]}, {"molecular_target": "T1, Transmembrane protease serine 2", "test": "Inhibition of recombinant TMPRSS2 (unknown origin) extracted from baculovirus infected in Sf9 cells using Boc-QAR-AMC as substrate measured after 1 hr by fluorescence based analysis", "settings": "not given", "units": {"IC50": "nM"}, "values": [{"smiles": "CCOC(=O)N[C@@H](CCCNC(=N)N)C(=O)N[C@@H](CCC(N)=O)C(=O)N[C@@H](Cc1ccccc1)C(=O)N[C@@H](CCCNC(=N)N)C(=O)c1nc2ccccc2s1", "IC50": 0.89}, {"smiles": "N=C(N)NCCC[C@H](NC(=O)[C@H](Cc1ccccc1)NC(=O)[C@H](CCC(N)=O)NC(=O)OCc1ccccc1)C(=O)c1nccs1", "IC50": 0.35}]}, {"tested_on": "not listed separately", "test": "Cytotoxicity against human Calu-3 cells assessed as cell viability measured after 72 hrs by luminescence based Cell-Titer-Glo assay", "type": "toxicity", "settings": "not given", "units": {"CC50 at 72 h": "nM"}, "values": [{"smiles": "N=C(N)NCCC[C@H](NC(=O)[C@H](Cc1ccccc1)NC(=O)[C@H](CCC(N)=O)NC(=O)OCc1ccccc1)C(=O)c1nccs1", "CC50 at 72 h": 110000}]}, {"tested_on": "not listed separately", "test": "Drug concentration in C57BL/6J mouse plasma measured after 15 mins", "type": "ADME", "settings": "read-out: Drug uptake", "units": {"concentration at 0.25 h": "ng/mL"}, "values": [{"smiles": "N=C(N)NCCC[C@H](NC(=O)[C@H](Cc1ccccc1)NC(=O)[C@H](CCC(N)=O)NC(=O)OCc1ccccc1)C(=O)c1nccs1", "concentration at 0.25 h": 182}]}]}
